Residues, ends and D or L forms follow the SMILES beside them. *: point of attachment. Palmitoyl = CCCCCCCCCCCCCCCC(=O)*
Legend:
TRPV6 G488R = assay: Fura-2 Ca2+ imaging, TRPV6 G488R; type: cell-based, human; settings: HEK293 cells; 20 μM pal-PIP2 peptide; 2 mM Ca2+; Figure 2A
TRPV6 I575A [1] = assay: Whole-cell patch clamp, TRPV6 I575A; type: cell-based, human; settings: HEK293 cells, 10 μM pal-PIP2 peptide, Figure 5C (substitution reduces the inhibition)
Text: (§1) N-terminally TagRFP-labeled human TRPV6 (725 aa) was kindly provided by R. Bhardwaj and M. Hediger (University of Bern, Bern, Switzerland). This variant is translated from the first ATG codon and thus deviates from the non-ATG-initiated protein which is expressed in vivo (accession number NM_018646.6) by lacking 40 amino acids of the very N-terminus. For N-terminal labeling with EYFP, TRPV6 was cloned into pEYFP-C1 (Clontech) via EcoRI and SacII restriction sites. Mutations (F468A, R470A, F472A, K484A/Q, G488R, R492A/Q, I575A, G579A, D580A/K, H582A, W583A/F, H587A, R589A, W593A, R632A/Q, R470A, W583F) were introduced using the QuickChange XL site-directed mutagenesis kit (Stratagene, San Diego, CA, USA) and Pfu DNA Polymerase (Promega, Madison, WI, USA). pTagRFP-hTRPV6 I575A was kindly provided by the lab of M. Hediger (University of Bern, Bern, Switzerland). Forward and reverse primers for site-directed mutagenesis were synthesized by Eurofins genomics GmbH (Wien, Vienna, Austria). Intactness of the constructs in terms of sequence was confirmed by sequencing (Microsynth Austria GmbH, Wien, Vienna, Austria; Eurofins genomics GmbH, Wien, Vienna, Austria). […]
(§2) Electrophysiological experiments were performed at 20 °C to 24 °C in whole-cell recording configurations of the patch clamp technique. […] The liquid junction potential was determined as 12 mV; the voltages were not adjusted. […]

TRPV6 D580K = assay: Whole-cell patch clamp, TRPV6 D580K; type: cell-based, human; settings: HEK293 cells, 10 μM pal-PIP2 peptide, Figure 5C (substitution reduces the inhibition)
Text: as §1, §2

TRPV6 W593A = assay: NFAT screen, TRPV6 W593A; type: cell-based, human; settings: HEK293 cells; 5 μM cis-22a, 2 h
Experimental: (§3) N-terminally TagRFP-labeled human TRPV6 (725 aa) was kindly provided by R. Bhardwaj and M. Hediger (University of Bern, Bern, Switzerland). This variant is translated from the first ATG codon and thus deviates from the non-ATG-initiated protein which is expressed in vivo (accession number NM_018646.6) by lacking 40 amino acids of the very N-terminus. For N-terminal labeling with EYFP, TRPV6 was cloned into pEYFP-C1 (Clontech) via EcoRI and SacII restriction sites. […]
(§4) After incubation, cover slips were carefully rinsed with phenol red-free DMEM supplemented with the compound and dosage corresponding to the previous incubation, which was then also present during imaging. […] Subcellular NFAT localization of TRPV6 expressing cells was again monitored on an Axiovert 135 inverted microscope (Zeiss, Oberkochen, Germany), as described in more detail before. […] Images were analyzed using Matlab2018a, differentiating between three cell populations based on the ratio of CFP emission intensity originating from the nucleus and the cytosol, similar to Schober et al. (2019).

TRPV6 R492A = assay: NFAT screen, TRPV6 R492A; type: cell-based, human; settings: HEK293 cells; 5 μM cis-22a, 2 h; nuclear NFAT already reduced without cis-22a
Experimental: as §3, §4

TRPV6 I575A [2] = assay: NFAT screen, TRPV6 I575A; type: cell-based, human; settings: HEK293 cells; 5 μM cis-22a, 2 h, vs DMSO
Experimental: as §3, §4

TRPV6 W583F = assay: NFAT screen, TRPV6 W583F; type: cell-based, human; settings: HEK293 cells; 5 μM cis-22a, 2 h, vs DMSO
Experimental: as §3, §4

TRPV6 D580A = assay: NFAT screen, TRPV6 D580A; type: cell-based, human; settings: HEK293 cells; 5 μM cis-22a, 2 h, vs DMSO
Experimental: as §3, §4

TRPV6 F468A = assay: NFAT screen, TRPV6 F468A; type: cell-based, human; settings: HEK293 cells; 5 μM cis-22a, 2 h; nuclear NFAT already reduced without cis-22a
Experimental: as §3, §4

TRPV6 R470A W583F = system: TRPV6 R470A W583F; design: method as in PMID 33246965; settings: ref [47], cited from earlier work
TRPV6 H582A = assay: NFAT screen, TRPV6 H582A; type: cell-based, human; settings: HEK293 cells; 5 μM cis-22a, 2 h, vs DMSO; analysable cells hardly present
Experimental: as §3, §4

Row | SMILES | reduction of intracellular Ca2+ level (TRPV6 G488R) | inhibitory effect of pal-PIP2 peptide vs WT (TRPV6 I575A [1]) | inhibitory effect of pal-PIP2 peptide vs WT (TRPV6 D580K) | reduction in nuclear NFAT (TRPV6 W593A) | reduction of nuclear NFAT localization (TRPV6 R492A) | change of nuclear NFAT localization (TRPV6 I575A [2]) | change of nuclear NFAT localization (TRPV6 W583F) | change of nuclear NFAT localization (TRPV6 D580A) | reduction of nuclear NFAT localization (TRPV6 F468A) | inhibition by cis-22a in electrophysiological measurements (TRPV6 R470A W583F; HEK293 cells, 0.1 and 10 μM cis-22a, n=6, Figure S6B) | resistance to cis-22a vs single mutants (TRPV6 R470A W583F; R470A W583F, especially at the high blocker concentration) | inhibition by cis-22a (in words) (TRPV6 R470A W583F; R470A W583F) | change of nuclear NFAT localization (TRPV6 H582A)
1 | CCCCCCCCCCCCCCCC(=O)N[C@@H](Cc1c[nH]cn1)C(=O)N[C@@H](CCCNC(=N)N)C(=O)N[C@@H](CCC(N)=O)C(=O)N[C@@H](CCCCN)C(=O)N[C@@H](Cc1c[nH]cn1)C(=O)N[C@@H](Cc1ccccc1)C(=O)N[C@@H](CCC(=O)O)C(=O)N[C@@H](CCCCN)C(=O)N[C@@H](CCCNC(=N)N)C(=O)N[C@@H](CCCNC(=N)N)C(N)=O [pal-PIP2 peptide] (Palmitoyl-HRQKHFEKRR-NH2) | ~ 2% | interfered with the inhibitory effect of the pal-PIP2 peptide | interfered with the inhibitory effect of the pal-PIP2 peptide |  |  |  |  |  |  |  |  |  | 
2 | Cc1cccc(C2CCC(N3CCN(c4cccnc4)CC3)CC2)c1.O=C(O)C(F)(F)F (stereo not drawn) [cis-22a] |  |  |  | lower yet significant decrease in the proportion of cells showing NFAT in the nucleus | further significant reduction in nucleus-targeted NFAT | not significantly changed | not significantly changed | not significantly changed | further significant reduction in nucleus-targeted NFAT | just modest inhibition | considerably higher resistance | very weak inhibition | nuclear NFAT localization was higher for cis-22a-treated cells compared to the DMSO control

Reference: article PMC10779433, “Bidirectional Allosteric Coupling between PIP2 Binding and the Pore of the Oncochannel TRPV6” (International Journal of Molecular Sciences, 2024)
